From PubChem BioAssay AID743501 (Broad Institute, 2014)
Calls of active or inactive are those of the source.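 How the source made its calls: active means half-inhibitory concentration IC50 below 35 µM against dopamine receptor luciferase signal; inactive means the rest.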

System: HEK293 dopamine receptor CRE-luciferase, antagonist mode
Assay: dopamine receptor CRE reporter signal reduction – cell-based, HEK293, luminescence, dry powder, counter-screen for LGR2 project, dose response (AID 743501)

| Structure (SMILES) | IC50 |
| --- | --- |
| C[C@H](CO)N1C[C@H](C)[C@H](CN(C)C(=O)Nc2ccc(F)cc2)OCCCC[C@H](C)Oc2ccc(NC(=O)C3CCCCC3)cc2C1=O | < 35 µM |
| C[C@H](CO)N1C[C@H](C)[C@H](CN(C)C(=O)Nc2ccccc2)OCCCC[C@H](C)Oc2ccc(NC(=O)C3CCCCC3)cc2C1=O | < 35 µM |
| C[C@H](CO)N1C[C@H](C)[C@H](CN(C)C(=O)Nc2ccc3c(c2)OCO3)OCCCC[C@H](C)Oc2ccc(NC(=O)C3CCCCC3)cc2C1=O | < 35 µM |
| C[C@@H]1CCCCO[C@H](CN(C)C(=O)Nc2ccc(F)cc2)[C@H](C)CN([C@@H](C)CO)C(=O)c2cc(NC(=O)C3CCCCC3)ccc2O1 | > 35 µM (inactive) |
| COc1ccc(NC(=O)N(C)C[C@@H]2OCCCC[C@H](C)Oc3ccc(NC(=O)C4CCCCC4)cc3C(=O)N([C@H](C)CO)C[C@@H]2C)cc1 | > 35 µM (inactive) |
